In patent US20050222048A1, “Novel synthetic C-glycolipids, their synthesis and use to treat infections, cancer and autoimmune diseases” (The Research Foundation of The City University of New York, priority 2004, published 2005):

Test system: IFN-γ
Experiment: Serum IFN-γ concentration by sandwich ELISA after i.v. injection of glycolipid into mice
Format: in vivo
Settings: BALB/c mice, 1 μg i.v., ELISA at 2, 6, 12 and 24 hours post-injection
Procedure: α-Galactosylceramide (α-GalCer, KRN or KRN7000) was synthesized by Kirin Brewery (Gumma, Japan). The stock solution was dissolved in a 0.5% polysorbate −20 (Nikko Chemical, Tokyo), 0.9% NaCl solution at a concentration of 200 μg/ml, and diluted in PBS just before injection into mice. α-C-galactosylceramide (α-C-GalCer, CRONY or CRONY-101) was synthesized as described in commonly owned U.S. patent application Ser. No. 10/462,211. Compounds […], GCK75(a) and GCK75(b) were synthesized as described herein. The stock solution was originally dissolved in 100% DMSO at a concentration of 1 mg/ml. Before injection into mice, it was diluted to a concentration of 200 μg/ml in a 0.5% polysorbate-20 (Nikko Chemical, Tokyo), 0.9% NaCl solution, and diluted in PBS just before injection into mice. […]
The serum concentrations of IFN-γ were measured at 2, 6, 12, and 24 hours after treatment with α-GalCer, α-C-GalCer, compound […], GCK75(a), GCK75(b), or nothing using a sandwich ELISA (e-bioscience, San Diego).
To compare the timing of immunological responses to α-GalCer (KRN), α-C-GalCer (CRONY), GCM11i, GCK75(a), and GCK75(b), mice were injected intravenously (i.v.) with 1 μg of each of the glycolipids or with nothing. At 2, 6, 12, and 24 hours post-injection, IFN-γ concentrations in the sera were measured by ELISA.

α-C-galactosylceramide [α-C-GalCer]
time of peak IFN-γ response in the sera post-injection: 24 h
